Here are results for one molecule from publication PMC11672292, “Discovery of Balasubramide Derivative with Tissue‐Specific Anti‐Inflammatory Activity Against Acute Lung Injury by Targeting VDAC1” (Advanced Science, 2024).

Data set [1] deals with T1, VDAC1 oligomerization in LPS-primed BMDMs (Mus musculus, UniProt Q60932).
T1 construct: endogenous in cells; host or cells: primary bone marrow-derived macrophages (BMDMs) from C57BL/6J mice
Put plainly: VDAC1 cross-linking (oligomerization) assay. The format is cell-based. The conditions noted are these: DSS cross-linking, immunoblotting. Here is the method:
The cells (BMDM, iBMDM, RAW264.7, and HEK293T) treated with (+)3C‐20 were washed twice by PBS and lysed in RIPA. The lysate was incubated for 30 min at 30 °C with the cross‐linking reagent DSS (1 mM), mixed with 4 × laemmli buffer with DTT, subjected to SDS‐PAGE and immunoblotting analyzed with anti‐VDAC1 antibody.
Background: A western blot detects proteins with antibodies after separation by electrophoresis.

The subject of data set [2] is mice. Put plainly: Subacute toxicity, 28 consecutive days of administration. Type of data set: in vivo.
In data set [3] the test system is sepsis-induced ALI mice. Put plainly: Sepsis-induced acute lung injury (ALI) model (i.p. LPS). Type of data set: in vivo, mouse. As to the method: For sepsis‐induced ALI model, C57BL/6J mice were randomly divided into five experimental groups (n = 8–9) according to weight, including control group (PBS+Vehicle), vehicle group (LPS+Vehicle), Dexamethasone treated group (LPS+DEX at 5 mg kg^−1), (+)3C‐20 treated group (LPS+3C‐20 at 10 mg kg^−1 or 50 mg kg^−1). All mice were weighed and intraperitoneally administered DEX, (+)3C‐20 (dissolved in vehicle solution) or vehicle (5% DMSO, 20% BASF Kolliphor HS15, 75% Saline) daily for 3 consecutive days with the determined injection volume (10 mL kg^−1). After the third administration, except for the control group, mice were intraperitoneally injected with LPS (10 mg kg^−1, 10 mL kg^−1) dissolved in PBS 2 h after vehicle or compound pretreatment. […]
After mice were sacrificed, the left lung tissue fixed with 4% paraformaldehyde was embedded in paraffin, cut into 5 µm thick sections, and stained with hematoxylin and eosin. The slices were scanned with light microscopy (BX53, Olympus, Japan) to evaluate gross morphology and lung damage and inflammation, then the alveolar cells area of the image obtained was calculated with Image J 1.51 (NIH, USA), and the histopathological lung injury scores were determined as previously reported.^[ [62] ^]

In data set [4] the test system is intratracheal LPS-induced ALI mice. In words: Intratracheal instillation of LPS-induced ALI model. The format is in vivo, mouse. As to the method: The intratracheal instillation of the LPS‐induced ALI model in mice has been previously validated.^[ [60], [61] ^] […] The injection volume of all groups was 10 mL kg^−1. […] The mice were fixed in dorsal recumbency, then the skins and muscles of the mice were separated to expose the tracheal after disinfection. Subsequently, mice were intratracheally injected with 50 µL LPS (20 mg kg^−1) or PBS into the lung through tracheal cartilage rings by using insulin syringes and observed after stitching up the muscles and skins. At 6 h after LPS injection, mice were euthanized to collect samples required for subsequent experiments.
After mice were sacrificed, the left lung tissue fixed with 4% paraformaldehyde was embedded in paraffin, cut into 5 µm thick sections, and stained with hematoxylin and eosin.
Mice were stimulated and treated as indicated in experiments and the lung was lavaged three times through the trachea with 500 µL pre‐chilled PBS buffer. The fluids were merged and centrifuged at 600 × g for 10 min. The supernatant was collected to measure total protein using the BCA kit and for pro‐inflammatory cytokines detection by ELISA described above, and cell pellets after centrifugation were resuspended in FACS buffer (PBS with 1% FBS). […] Finally, the samples were washed twice with FACS buffer and analyzed with Cytoflex S (Beckman coulter, USA)

For data set [5], the system named is PBMCs from ALI patients. Put plainly: Cytosolic mtDNA release in LPS-stimulated PBMCs from ALI patients. Type of data set: cell-based, human. The conditions noted are these: 10 µM. As to the method: PBMCs isolation and stimulation were performed as previously described.^[ [40], [66] ^] Anticoagulated whole blood diluted equally with PBS was added to a 15 mL sterile centrifuge tube containing lymphocyte separation solution (#C0025, Beyotime, China), and centrifuged for 10 min at 2500 rpm. The layer of PBMCs at the plasma‐density gradient medium interface was transferred to a new sterile tube, dispersed with 10 mL DMEM, and centrifuged for 5 min at 800 rpm. The mononuclear cells at the bottom of the tube were resuspended in DMEM with 10% FBS at 5 × 10^5 cells/well in 24‐well plates. After discarding the supernatant, the PBMCs were incubated with DMSO or 10 µM (+)3C‐20 for 3 h in DMEM, stimulated with 100 ng mL^−1 LPS for another 3 h, and lysed with TRIzol reagent for total RNA extraction and following indicated experiments.

The subject of data set [6] is BMDMs. In words: NLRP3 inflammasome-induced pyroptosis, LDH release. Type of data set: cell-based, mouse. The conditions noted are these: 10 µM, LPS plus ATP, Nigericin or MSU, compared with parent compound (+)3J. Here is the method:
According to previous reports,^[ [65] ^] NLRP3 inflammasome was activated in BMDMs primed with LPS (100 ng mL^−1) for 3 h, and the inflammasome was further assembled using ATP (5 mM, A6419, Sigma–Aldrich, USA) for 45 min, or Nigericin ([…], T3092, TargetMol, USA) for 1 h, or Monosodium Urate Crystal (MSU, 600 µg mL^−1, T41242, TargetMol, USA) for 6 h. To investigate the effect of compounds in NLRP3 inflammasome activation, the cells pretreated with compounds were stimulated with LPS for 3 h and followed by stimulation with ATP for another 45 min, or nigericin for another 1 h, or MSU for another 6 h to activate NLRP3 inflammasome.
Cell culture supernatants were collected and centrifuged to remove cell debris at 800 rpm for 5 min. LDH measurement was performed with an LDH cytotoxicity assay kit (C0017, Beyotime, China) according to the manufacture's instructions. Data were plotted normalizing the OD490 value of the model group as 100%.
On the technique in general: LDH leaks from cells whose membrane has failed.

Each structure is given as a SMILES string.

T1 sequence (Q60932 14-296): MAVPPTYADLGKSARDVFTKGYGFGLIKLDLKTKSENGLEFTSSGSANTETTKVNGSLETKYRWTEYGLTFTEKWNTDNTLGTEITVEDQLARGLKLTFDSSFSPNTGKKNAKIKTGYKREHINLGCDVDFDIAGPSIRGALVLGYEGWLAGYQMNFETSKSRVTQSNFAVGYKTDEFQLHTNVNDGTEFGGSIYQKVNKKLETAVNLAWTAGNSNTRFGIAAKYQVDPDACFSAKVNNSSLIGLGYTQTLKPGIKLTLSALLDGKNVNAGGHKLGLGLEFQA

Take `O=C(CCc1ccc(C(F)(F)F)cc1)O[C@@H]1C(=O)NCCc2c([nH]c3ccccc23)[C@H]1c1ccc(C(F)(F)F)cc1` [(+)3C-20]: the VDAC1 oligomerization result in data set [1] is “inhibit VDAC1 oligomerization in a dose‐dependent manner”. Further, the “effects on the liver (AST, ALT)” value in data set [2] (50 mg kg^−1, 28 days) is reported as “no harmful effects”. Further, in data set [2] (28 consecutive days of administration, 50 mg/kg), the “changes in body weight or relative organ weight” value was “did not observe any harmful changes”. In addition, the “secretion of TNF-α in serum” value in data set [3] (i.p. 10 or 50 mg kg^−1, 3 days pretreatment, LPS 10 mg kg^−1 i.p.) is given as “dose‐dependently decreased”. The “histopathological damage of lung (H&E)” value in data set [3] (pretreated at 10 or 50 mg kg^−1, versus vehicle group) is “less histopathological damage”. In data set [4] (50 mg kg^−1, compared to dexamethasone 5 mg kg^−1), the “therapeutic effect in H&E lung histology” value is “better therapeutic effect”. Also, the “survival rate of mice” value in data set [4] (after intratracheal instillation of LPS, 72 h observation, versus vehicle group) was “increased the survival rate”. Besides, the “lung index (lung organ coefficient)” value in data set [4] (mice, 50 mg kg^−1 i.p., LPS 20 mg kg^−1 i.t.) is listed as “reverse the upregulation of lung index”. Moreover, in data set [4] (pre-treatment at 50 mg kg^−1, LPS 20 mg kg^−1 i.t.), the lung wet/dry ratio result was “significantly reduced”. Moreover, the “cytosolic mtDNA release” value in data set [5] is “markedly reduced”. Also, the “NLRP3 inflammasome activators-stimulated cell death (membrane blebbing, LDH release)” value in data set [6] was “significantly decreased”.
